Laboratory results: PMC3139011 (Archives of biochemistry and biophysics, 2011)

Assays:
hDUOX2_1–599 = biological target: T1, hDUOX2_1–599 (Homo sapiens, UniProt Q9NRD8); experiment: heme titration, difference absorbance spectroscopy; assay type: binding
T1 sequence (Q9NRD8 1-599): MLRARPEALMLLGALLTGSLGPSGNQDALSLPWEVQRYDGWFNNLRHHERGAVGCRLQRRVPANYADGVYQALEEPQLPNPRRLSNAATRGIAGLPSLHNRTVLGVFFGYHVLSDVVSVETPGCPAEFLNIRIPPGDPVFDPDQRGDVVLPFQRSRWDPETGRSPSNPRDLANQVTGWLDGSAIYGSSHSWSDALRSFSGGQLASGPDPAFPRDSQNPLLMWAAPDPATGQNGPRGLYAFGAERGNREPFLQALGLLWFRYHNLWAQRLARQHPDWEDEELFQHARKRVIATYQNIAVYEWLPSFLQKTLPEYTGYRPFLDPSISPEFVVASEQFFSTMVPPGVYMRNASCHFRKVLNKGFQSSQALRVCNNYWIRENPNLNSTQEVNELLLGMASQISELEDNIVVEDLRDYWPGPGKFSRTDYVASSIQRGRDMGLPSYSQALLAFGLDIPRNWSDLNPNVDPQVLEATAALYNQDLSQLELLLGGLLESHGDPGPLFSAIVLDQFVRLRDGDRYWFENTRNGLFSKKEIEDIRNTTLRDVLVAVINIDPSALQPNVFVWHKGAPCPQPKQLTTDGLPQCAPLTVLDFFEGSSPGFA

hDUOX1_1–593 = biological target: T2, hDUOX1_1–593 (Homo sapiens, UniProt Q9NRD9); experiment: heme titration, difference absorbance spectroscopy; assay type: binding
T2 sequence (Q9NRD9 1-593): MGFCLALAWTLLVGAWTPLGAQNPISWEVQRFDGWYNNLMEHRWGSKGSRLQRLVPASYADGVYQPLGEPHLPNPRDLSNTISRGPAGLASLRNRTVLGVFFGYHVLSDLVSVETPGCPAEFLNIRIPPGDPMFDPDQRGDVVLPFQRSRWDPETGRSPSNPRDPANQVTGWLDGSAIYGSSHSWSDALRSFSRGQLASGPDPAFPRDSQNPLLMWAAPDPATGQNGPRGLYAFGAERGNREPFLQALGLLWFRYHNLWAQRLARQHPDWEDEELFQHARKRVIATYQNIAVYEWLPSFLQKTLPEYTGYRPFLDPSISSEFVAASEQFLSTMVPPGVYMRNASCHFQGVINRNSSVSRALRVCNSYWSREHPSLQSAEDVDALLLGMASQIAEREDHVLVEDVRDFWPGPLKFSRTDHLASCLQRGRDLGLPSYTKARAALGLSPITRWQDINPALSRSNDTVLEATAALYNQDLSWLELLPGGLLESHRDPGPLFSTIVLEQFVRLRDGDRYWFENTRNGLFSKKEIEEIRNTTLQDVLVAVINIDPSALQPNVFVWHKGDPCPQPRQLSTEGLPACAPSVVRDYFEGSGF

Kd (hDUOX2_1–599): 2400 ± 400 nM | Kd (hDUOX1_1–593): 2700 ± 100 nM
Structure (SMILES): C=CC1=C(C)C2=Cc3c(C=C)c(C)c4[n]3[Fe]([Cl])[n]3c(c(C)c(CCC(=O)O)c3=CC3=NC(=C4)C(C)=C3CCC(=O)O)=CC1=N2 [heme]
